Results: patent EP4745137A1 (Gluetacs Therapeutics (Shanghai) Co., Ltd., priority 2023, dated 2025)
Read-outs that look alike come from different tables or passages of the source.

What was measured:
[1] = target: T1, IKZF1 (Homo sapiens, UniProt Q13422+Q96SW2); test: Western-blot assay of substrate protein degradation in hPBMCs, IKZF1; format: cell-based; conditions: 24 hours of compound treatment
T1 construct: endogenous in cells; host or cells: hPBMCs (Milecell Biotechnologies)

[2] = target: T2, WEE1 (Homo sapiens, UniProt P30291+Q96SW2); test: Western-blot assay of substrate protein degradation in hPBMCs, WEE1; format: cell-based; conditions: 24 hours of compound treatment
T2 construct: endogenous in cells; host or cells: hPBMCs (Milecell Biotechnologies)

[3] = target: T3, IKZF3 (Homo sapiens, UniProt Q96SW2+Q9UKT9); test: Western-blot assay of substrate protein degradation in hPBMCs, IKZF3; format: cell-based; conditions: 24 hours of compound treatment
T3 construct: endogenous in cells; host or cells: hPBMCs (Milecell Biotechnologies)

[4] = target: T4, IKZF2 (Homo sapiens, UniProt Q96SW2+Q9UKS7); test: Western-blot assay of substrate protein degradation in hPBMCs, IKZF2; format: cell-based; conditions: 24 hours of compound treatment
T4 construct: endogenous in cells; host or cells: hPBMCs (Milecell Biotechnologies)

[5] = target: T5, human Cereblon WT GST-tagged protein (Homo sapiens, UniProt Q96SW2); test: CRBN-binding affinity by HTRF (CEREBLON BINDING kit); conditions: HTRF inhibitory activity, CEREBLON BINDING kit; read-out: HTRF IC50
T5 construct: purchased CISBIO 64BDCRBNPEH

[6] = target: T6, CK1α (Homo sapiens, UniProt P48729+Q96SW2); test: Western-blot assay of substrate protein degradation in hPBMCs, CK1α; format: cell-based; conditions: 24 hours of compound treatment
T6 construct: endogenous in cells; host or cells: hPBMCs (Milecell Biotechnologies)

[7] = test system: Human acute T lymphocytic leukemia cells (Molt-4); test: Tumor cell proliferation inhibition (CellTiter-Meiluncell Luminescent Cell Viability Assay), Molt-4; conditions: MOLT-4, 96 h, read-out: inhibitory activity (IC50, nM) against tumor cells proliferation, Molt 4
[8] = target: T7, GSPT1 (Homo sapiens, UniProt P15170+Q96SW2); test: Western-blot assay of substrate protein degradation in hPBMCs, GSPT1; format: cell-based; conditions: 24 hours of compound treatment
T7 construct: endogenous in cells; host or cells: hPBMCs (Milecell Biotechnologies)

[9] = test system: CCRF-CEM; test: Tumor cell proliferation inhibition (CellTiter-Meiluncell Luminescent Cell Viability Assay), CCRF-CEM; conditions: Homo sapiens, 96 h, read-out: inhibitory activity (IC50, nM) against tumor cells proliferation, CCRF-CEM
Description: (§1) The tumor cells used herein were cultured in a cell culture medium listed in table 2 at 37°C in an incubator with 5% CO2. Prior to experimentation, all cell lines used were correctly identified by STR profiling, and tested negative for mycoplasma contamination using a mycoplasma detection kit through routine screenings.
(§2) On the following day, the test compounds of the present disclosure were subjected to serial dilution. […] Subsequently, 0.5 µL of the test compound dilution was transferred into the 96-well plate containing the cells, with each well containing 100 µL of cell culture medium. […] Into the 96-well plate, the diluted test compounds and corresponding detection reagents were added, resulting in final test compound concentrations of 500 nM and 10 nM, respectively. The experimental procedure is described below using the diluted 2 µM test compound as an example.
(§3) After the cells were treated with the compounds of the present disclosure for a specified period (the treatment durations were shown in Table 3), the cell viability assay reagent was added to the culture medium according to the kit's instructions to determine cell viability. […] All controls were treated using the same procedure as the compounds of the present disclosure. The growth inhibition curves for the compounds of the present disclosure were plotted using Prism GraphPad software, and the IC50 values were calculated therefrom.

[10] = test system: Jurkat; test: Tumor cell proliferation inhibition (CellTiter-Meiluncell Luminescent Cell Viability Assay), Jurkat; conditions: Homo sapiens, read-out: inhibitory activity (IC50, nM) against tumor cells proliferation, Jurkat
Description: as §1, §2, §3

[11] = test system: MM.1R; test: Tumor cell proliferation inhibition (CellTiter-Meiluncell Luminescent Cell Viability Assay), MM.1R; conditions: Homo sapiens, 96 h, read-out: inhibitory activity (IC50, nM) against tumor cells proliferation, MM.1R
Description: as §1, §2, §3

[12] = test system: CAL-62; test: Tumor cell proliferation inhibition (CellTiter-Meiluncell Luminescent Cell Viability Assay), CAL-62; conditions: Homo sapiens, CAL-62, 96 h, read-out: inhibitory activity (IC50, nM) against tumor cells proliferation, CAL-62
[13] = test system: Human breast cancer cells (MDA-MB-231); test: Tumor cell proliferation inhibition (CellTiter-Meiluncell Luminescent Cell Viability Assay), MDA-MB-231; conditions: MDA-MB-231, 96 h, read-out: inhibitory activity (IC50, nM) against tumor cells proliferation, MDA-MB-231
[14] = test system: NCI-H1975; test: Tumor cell proliferation inhibition (CellTiter-Meiluncell Luminescent Cell Viability Assay), NCI-H1975; conditions: Homo sapiens, NCI-H1975, 96 h, read-out: inhibitory activity (IC50, nM) against tumor cells proliferation, H1975
[15] = compounds tested at 50 nM and 500 nM (concentration of the table not stated)
[16] = 50 nM and 500 nM tested (concentration behind the class not stated)

T1 sequence (Q13422 whole entry): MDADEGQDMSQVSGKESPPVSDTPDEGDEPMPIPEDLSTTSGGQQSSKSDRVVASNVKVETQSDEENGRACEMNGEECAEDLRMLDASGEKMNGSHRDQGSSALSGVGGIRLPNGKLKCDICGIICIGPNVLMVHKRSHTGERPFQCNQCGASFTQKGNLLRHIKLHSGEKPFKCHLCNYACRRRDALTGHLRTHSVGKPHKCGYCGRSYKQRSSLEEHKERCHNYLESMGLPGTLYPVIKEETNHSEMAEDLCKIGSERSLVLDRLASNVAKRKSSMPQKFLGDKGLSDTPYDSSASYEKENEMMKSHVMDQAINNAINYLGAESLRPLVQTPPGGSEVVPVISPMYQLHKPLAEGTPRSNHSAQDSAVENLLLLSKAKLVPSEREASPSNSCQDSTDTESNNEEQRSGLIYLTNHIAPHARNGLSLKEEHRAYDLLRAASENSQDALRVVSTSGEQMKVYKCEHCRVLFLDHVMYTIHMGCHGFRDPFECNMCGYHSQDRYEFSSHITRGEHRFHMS
T1 sequence (Q96SW2 whole entry): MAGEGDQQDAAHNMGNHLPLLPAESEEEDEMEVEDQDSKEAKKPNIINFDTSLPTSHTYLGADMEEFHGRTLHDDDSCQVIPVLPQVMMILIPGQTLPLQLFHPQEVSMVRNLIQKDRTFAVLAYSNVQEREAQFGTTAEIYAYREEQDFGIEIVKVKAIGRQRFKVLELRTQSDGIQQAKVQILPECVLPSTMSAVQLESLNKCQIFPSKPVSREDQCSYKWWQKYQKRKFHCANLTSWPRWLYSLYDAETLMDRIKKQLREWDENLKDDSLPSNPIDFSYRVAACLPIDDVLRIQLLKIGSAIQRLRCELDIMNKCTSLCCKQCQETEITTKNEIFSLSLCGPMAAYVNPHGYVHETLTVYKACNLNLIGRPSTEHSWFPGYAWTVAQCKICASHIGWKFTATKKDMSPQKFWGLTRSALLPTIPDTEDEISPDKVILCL
T1 sequence (Q16531 whole entry partner): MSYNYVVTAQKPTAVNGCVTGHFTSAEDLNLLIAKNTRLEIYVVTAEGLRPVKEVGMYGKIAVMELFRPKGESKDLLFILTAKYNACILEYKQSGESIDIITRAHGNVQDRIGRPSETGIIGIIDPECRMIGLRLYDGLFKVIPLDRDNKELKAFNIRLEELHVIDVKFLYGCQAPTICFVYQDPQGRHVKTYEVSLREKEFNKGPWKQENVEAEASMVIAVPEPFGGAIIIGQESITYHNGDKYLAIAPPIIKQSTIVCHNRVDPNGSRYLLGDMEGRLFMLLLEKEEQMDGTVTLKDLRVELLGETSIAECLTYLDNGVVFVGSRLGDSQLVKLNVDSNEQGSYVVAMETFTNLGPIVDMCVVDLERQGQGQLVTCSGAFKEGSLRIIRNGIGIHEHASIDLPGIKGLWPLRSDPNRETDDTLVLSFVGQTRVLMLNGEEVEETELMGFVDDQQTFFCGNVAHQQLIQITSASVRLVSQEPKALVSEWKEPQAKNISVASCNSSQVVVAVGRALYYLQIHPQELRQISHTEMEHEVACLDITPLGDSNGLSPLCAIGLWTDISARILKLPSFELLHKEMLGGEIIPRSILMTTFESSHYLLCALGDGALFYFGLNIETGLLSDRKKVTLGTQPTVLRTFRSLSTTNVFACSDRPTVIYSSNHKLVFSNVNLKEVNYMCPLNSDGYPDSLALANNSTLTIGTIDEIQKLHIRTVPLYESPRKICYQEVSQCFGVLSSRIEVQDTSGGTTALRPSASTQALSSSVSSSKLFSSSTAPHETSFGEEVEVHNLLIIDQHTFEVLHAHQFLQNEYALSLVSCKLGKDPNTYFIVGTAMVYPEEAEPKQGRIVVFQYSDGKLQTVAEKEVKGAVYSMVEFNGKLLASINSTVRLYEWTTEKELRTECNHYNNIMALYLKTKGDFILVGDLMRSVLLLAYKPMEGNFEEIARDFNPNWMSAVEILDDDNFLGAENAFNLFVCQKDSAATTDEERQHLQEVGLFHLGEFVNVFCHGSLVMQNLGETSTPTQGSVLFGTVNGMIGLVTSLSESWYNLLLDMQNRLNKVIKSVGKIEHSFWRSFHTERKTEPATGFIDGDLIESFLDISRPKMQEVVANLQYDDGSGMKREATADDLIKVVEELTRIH
T5 sequence (Q96SW2 whole entry): as the sequence (Q96SW2 whole entry) above
T7 sequence (P15170 whole entry): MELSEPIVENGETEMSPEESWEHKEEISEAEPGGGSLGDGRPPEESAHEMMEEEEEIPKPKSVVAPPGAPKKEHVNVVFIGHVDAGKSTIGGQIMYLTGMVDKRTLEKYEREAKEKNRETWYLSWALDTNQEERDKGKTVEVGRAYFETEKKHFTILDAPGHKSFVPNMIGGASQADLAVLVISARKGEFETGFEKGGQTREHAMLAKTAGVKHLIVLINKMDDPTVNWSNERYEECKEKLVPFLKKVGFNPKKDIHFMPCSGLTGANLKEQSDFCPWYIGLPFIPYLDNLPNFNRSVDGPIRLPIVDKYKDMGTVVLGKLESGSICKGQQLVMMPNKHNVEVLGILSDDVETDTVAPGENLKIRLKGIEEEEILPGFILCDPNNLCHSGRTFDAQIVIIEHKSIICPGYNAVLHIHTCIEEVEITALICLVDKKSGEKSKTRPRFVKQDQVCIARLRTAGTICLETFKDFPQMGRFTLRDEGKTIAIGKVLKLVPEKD
T7 sequence (Q96SW2 whole entry): as the sequence (Q96SW2 whole entry) above
T7 sequence (Q16531 whole entry partner): as the sequence (Q16531 whole entry partner) above
T2 sequence (P30291 whole entry): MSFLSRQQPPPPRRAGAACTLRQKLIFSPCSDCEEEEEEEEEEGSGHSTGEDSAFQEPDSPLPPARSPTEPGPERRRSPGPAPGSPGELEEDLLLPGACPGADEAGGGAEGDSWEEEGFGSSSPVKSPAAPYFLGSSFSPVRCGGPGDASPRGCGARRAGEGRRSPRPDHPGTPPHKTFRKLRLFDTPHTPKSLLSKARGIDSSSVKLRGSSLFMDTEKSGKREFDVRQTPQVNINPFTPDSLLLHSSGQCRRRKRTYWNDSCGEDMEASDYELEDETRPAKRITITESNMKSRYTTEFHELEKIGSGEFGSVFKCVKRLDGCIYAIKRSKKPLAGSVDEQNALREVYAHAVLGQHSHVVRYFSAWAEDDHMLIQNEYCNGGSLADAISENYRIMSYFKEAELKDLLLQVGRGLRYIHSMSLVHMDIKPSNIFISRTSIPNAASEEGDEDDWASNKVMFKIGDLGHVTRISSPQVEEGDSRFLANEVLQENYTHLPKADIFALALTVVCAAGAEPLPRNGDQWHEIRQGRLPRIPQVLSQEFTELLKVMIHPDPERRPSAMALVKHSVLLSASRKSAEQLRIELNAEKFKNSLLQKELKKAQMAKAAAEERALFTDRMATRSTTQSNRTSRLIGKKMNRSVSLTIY
T2 sequence (Q96SW2 whole entry): as the sequence (Q96SW2 whole entry) above
T2 sequence (Q16531 whole entry partner): as the sequence (Q16531 whole entry partner) above
T4 sequence (Q9UKS7 whole entry): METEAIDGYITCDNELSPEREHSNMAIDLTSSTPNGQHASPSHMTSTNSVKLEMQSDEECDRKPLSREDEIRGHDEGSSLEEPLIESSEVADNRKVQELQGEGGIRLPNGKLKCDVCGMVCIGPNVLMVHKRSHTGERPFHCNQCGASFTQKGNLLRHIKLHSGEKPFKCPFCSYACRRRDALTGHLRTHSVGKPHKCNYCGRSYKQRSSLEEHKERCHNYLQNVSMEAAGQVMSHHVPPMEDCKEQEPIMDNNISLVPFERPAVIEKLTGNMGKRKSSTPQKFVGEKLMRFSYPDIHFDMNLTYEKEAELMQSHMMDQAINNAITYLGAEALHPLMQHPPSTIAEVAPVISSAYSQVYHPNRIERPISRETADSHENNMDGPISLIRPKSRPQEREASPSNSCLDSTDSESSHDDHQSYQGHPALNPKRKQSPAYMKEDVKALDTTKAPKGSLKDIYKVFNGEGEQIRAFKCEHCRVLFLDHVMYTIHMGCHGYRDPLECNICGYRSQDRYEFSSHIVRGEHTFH
T4 sequence (Q96SW2 whole entry): as the sequence (Q96SW2 whole entry) above
T4 sequence (Q16531 whole entry partner): as the sequence (Q16531 whole entry partner) above
T3 sequence (Q9UKT9 whole entry): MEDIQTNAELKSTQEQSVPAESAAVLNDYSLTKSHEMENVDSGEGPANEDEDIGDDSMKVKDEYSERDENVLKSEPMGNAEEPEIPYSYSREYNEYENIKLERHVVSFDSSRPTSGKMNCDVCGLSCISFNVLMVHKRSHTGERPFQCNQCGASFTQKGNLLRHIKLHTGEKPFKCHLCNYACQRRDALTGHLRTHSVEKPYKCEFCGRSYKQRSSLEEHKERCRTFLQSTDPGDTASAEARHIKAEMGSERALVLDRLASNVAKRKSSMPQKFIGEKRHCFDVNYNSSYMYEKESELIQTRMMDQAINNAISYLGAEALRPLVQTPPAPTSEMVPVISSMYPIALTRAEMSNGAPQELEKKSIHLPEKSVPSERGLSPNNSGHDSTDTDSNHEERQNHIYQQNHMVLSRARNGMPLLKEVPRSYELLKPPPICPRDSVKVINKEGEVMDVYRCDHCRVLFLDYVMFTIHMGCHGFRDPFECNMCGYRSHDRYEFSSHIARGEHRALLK
T3 sequence (Q96SW2 whole entry): as the sequence (Q96SW2 whole entry) above
T3 sequence (Q16531 whole entry partner): as the sequence (Q16531 whole entry partner) above

| IC50 [5] | IC50 [7] | IC50 ([10]; 96 h) | IC50 [11] | SMILES | IKZF 1 substrate protein remaining % [1, 15] | Weel substrate protein remaining % [2, 15] | IKZF3 substrate protein remaining % [3, 15] | IKZF2 substrate protein remaining % [4, 15] | CK1a substrate protein remaining % [6, 15] | GSPT1 substrate protein remaining % [8, 15] | IC50 [13] | IC50 [14] | also measured |
| --- | --- | --- | --- | --- | --- | --- | --- | --- | --- | --- | --- | --- | --- |
| 500 to 1000 nM | 100 to 500 nM | 100 to 500 nM | – | O=C1CCC(N2Cc3cc(CN4CCN(c5cccc(Cl)c5Cl)CC4)cc(F)c3C2=O)C(=O)N1 (stereo not drawn) [GT-04445, 3-(5-((4-(2,3-dichlorophenyl)piperazin-1-yl)methyl)-7-fluoro-1-oxoisoindolin-2-yl)piperidine-2,6-dione] | A (0% ≤ substrate protein remaining % ≤ 80%) | B (80%< substrate protein remaining %≤ 100%) | A (0% ≤ substrate protein remaining % ≤ 80%) | A (0% ≤ substrate protein remaining % ≤ 80%) | B (80%< substrate protein remaining %≤ 100%) | A (0% ≤ substrate protein remaining % ≤ 80%) | – | – | IC50 [9]: 100 to 500 nM |
| 1000 to 1500 nM | 100 to 500 nM | 100 to 500 nM | 100 to 500 nM | COc1ccc(N2CCN(Cc3ccc4c(c3)CN(C3CCC(=O)NC3=O)C4=O)CC2)cc1 (stereo not drawn) [GT-04447, 3-(5-((4-(4-methoxyphenyl)piperazin-1-yl)methyl)-1-oxoisoindolin-2-yl)piperidine-2,6-dione] | A (0% ≤ substrate protein remaining % ≤ 80%) | B (80%< substrate protein remaining %≤ 100%) | A (0% ≤ substrate protein remaining % ≤ 80%) | A (0% ≤ substrate protein remaining % ≤ 80%) | B (80%< substrate protein remaining %≤ 100%) | A (0% ≤ substrate protein remaining % ≤ 80%) | – | – | IC50 [9]: 100 to 500 nM |
| 500 to 1000 nM | – | – | – | O=C1CCC(N2Cc3cc(CN4CCN(c5cnnc(Cl)c5Cl)CC4)ccc3C2=O)C(=O)N1 (stereo not drawn) [GT-04544, 3-(5-((4-(5,6-dichloropyridazin-4-yl)piperazin-1-yl)methyl)-1-oxoisoindolin-2-yl)piperidine-2,6-dione] | A (0% ≤ substrate protein remaining % ≤ 80%) | A (0% ≤ substrate protein remaining % ≤ 80%) | A (0% ≤ substrate protein remaining % ≤ 80%) | A (0% ≤ substrate protein remaining % ≤ 80%) | A (0% ≤ substrate protein remaining % ≤ 80%) | A (0% ≤ substrate protein remaining % ≤ 80%) | – | – | IC50 [12]: 50 to 100 nM |
| < 500 nM | – | – | – | O=C1CCC(N2Cc3cc(CN4CCN(c5cccs5)CC4)ccc3C2=O)C(=O)N1 (stereo not drawn) [GT-04545, 3-(1-oxo-5-((4-(thiophen-2-yl)piperazin-1-yl)methyl)isoindolin-2-yl)piperidine-2,6-dione] | A (0% ≤ substrate protein remaining % ≤ 80%) | A (0% ≤ substrate protein remaining % ≤ 80%) | A (0% ≤ substrate protein remaining % ≤ 80%) | A (0% ≤ substrate protein remaining % ≤ 80%) | A (0% ≤ substrate protein remaining % ≤ 80%) | A (0% ≤ substrate protein remaining % ≤ 80%) | – | – | IC50 [12]: 100 to 500 nM |
| 500 to 1000 nM | 100 to 500 nM | 100 to 500 nM | 100 to 500 nM | O=C1CCC(N2Cc3cc(CN4CCN(c5ccsc5)CC4)ccc3C2=O)C(=O)N1 (stereo not drawn) [GT-04547, 3-(1-oxo-5-((4-(thiophen-3-yl)piperazin-1-yl)methyl)isoindolin-2-yl)piperidine-2,6-dione] | A (0% ≤ substrate protein remaining % ≤ 80%) | A (0% ≤ substrate protein remaining % ≤ 80%) | A (0% ≤ substrate protein remaining % ≤ 80%) | A (0% ≤ substrate protein remaining % ≤ 80%) | A (0% ≤ substrate protein remaining % ≤ 80%) | A (0% ≤ substrate protein remaining % ≤ 80%) | – | – | – |
| 500 to 1000 nM | 10 to 50 nM | 10 to 50 nM | 10 to 50 nM | Cc1cscc1N1CCN(Cc2ccc3c(c2)CN(C2CCC(=O)NC2=O)C3=O)CC1 (stereo not drawn) [GT-04548, 3-(5-((4-(4-methylthiophen-3-yl)piperazin-1-yl)methyl)-1-oxoisoindolin-2-yl)piperidine-2,6-dione] | A (0% ≤ substrate protein remaining % ≤ 80%) | A (0% ≤ substrate protein remaining % ≤ 80%) | A (0% ≤ substrate protein remaining % ≤ 80%) | A (0% ≤ substrate protein remaining % ≤ 80%) | A (0% ≤ substrate protein remaining % ≤ 80%) | A (0% ≤ substrate protein remaining % ≤ 80%) | 500 to 1000 nM | 500 to 1000 nM | – |
| < 500 nM | 50 to 100 nM | – | – | O=C1CCC(N2Cc3cc(CN4CC=C(c5c[nH]c6cc(F)ccc56)CC4)ccc3C2=O)C(=O)N1 (stereo not drawn) [GT-04722, 3-(5-((4-(6-fluoro-1H-indol-3-yl)-3,6-dihydropyridin-1(2H)-yl)methyl)-1-oxoisoindolin-2-yl)piperidine-2,6-dione] | B (80%< substrate protein remaining %≤ 100%) | B (80%< substrate protein remaining %≤ 100%) | A (0% ≤ substrate protein remaining % ≤ 80%) | B (80%< substrate protein remaining %≤ 100%) | A (0% ≤ substrate protein remaining % ≤ 80%) | A (0% ≤ substrate protein remaining % ≤ 80%) | 100 to 500 nM | 100 to 500 nM | – |
| – | – | – | – | O=C1CCC(N2C(=O)c3ccc(CN4CCC(c5ncc6ccsc6n5)CC4)cc3C2=O)C(=O)N1 (stereo not drawn) [GT-06652, 2-(2,6-dioxopiperidin-3-yl)-5-((4-(thieno[2,3-d]pyrimidin-2-yl)piperidin-1-yl)methyl)isoindoline-1,3-dione] | – | – | – | – | – | – | – | – | IKZF 1 substrate protein remaining % [1, 16]: B (80%< substrate protein remaining %≤ 100%); Weel substrate protein remaining % [2, 16]: A (0% ≤ substrate protein remaining % ≤ 80%); IKZF3 substrate protein remaining % [3, 16]: B (80%< substrate protein remaining %≤ 100%); IKZF2 substrate protein remaining % [4, 16]: A (0% ≤ substrate protein remaining % ≤ 80%); CK1a substrate protein remaining % [6, 16]: B (80%< substrate protein remaining %≤ 100%); GSPT1 substrate protein remaining % [8, 16]: A (0% ≤ substrate protein remaining % ≤ 80%); IC50 [10]: 100 to 500 nM |

| SMILES | IC50 [5] | IC50 [7] | IC50 ([10]; 96 h) | IC50 [11] | IKZF 1 substrate protein remaining % [1, 15] | Weel substrate protein remaining % [2, 15] | IKZF3 substrate protein remaining % [3, 15] | IKZF2 substrate protein remaining % [4, 15] | CK1a substrate protein remaining % [6, 15] | GSPT1 substrate protein remaining % [8, 15] | IC50 [13] | IC50 [14] | also measured |
| --- | --- | --- | --- | --- | --- | --- | --- | --- | --- | --- | --- | --- | --- |
| O=C1CCC(N2Cc3cc(CN4CCC(N5CCCc6cc(F)ccc65)CC4)ccc3C2=O)C(=O)N1 (stereo not drawn) [GT-04691, 3-(5-((4-(6-fluoro-3,4-dihydroquinolin-1(2H)-yl)piperidin-1-yl)methyl)-1-oxoisoindolin-2-yl)piperidine-2,6-dione] | 500 to 1000 nM | 10 to 50 nM | – | – | A (0% ≤ substrate protein remaining % ≤ 80%) | A (0% ≤ substrate protein remaining % ≤ 80%) | A (0% ≤ substrate protein remaining % ≤ 80%) | A (0% ≤ substrate protein remaining % ≤ 80%) | A (0% ≤ substrate protein remaining % ≤ 80%) | A (0% ≤ substrate protein remaining % ≤ 80%) | 500 to 1000 nM | 500 to 1000 nM | – |
| O=C1CCC(N2Cc3cc(CN4C5CC4CN(c4cccc(Cl)c4Cl)C5)ccc3C2=O)C(=O)N1 (stereo not drawn) [GT-04712, 3-(5-((3-(2,3-dichlorophenyl)-3,6-diazabicyclo[3.1.1]heptan-6-yl)methyl)-1-oxoisoindolin-2-yl)piperidine-2,6-dione] | 500 to 1000 nM | 10 to 50 nM | – | – | B (80%< substrate protein remaining %≤ 100%) | B (80%< substrate protein remaining %≤ 100%) | A (0% ≤ substrate protein remaining % ≤ 80%) | B (80%< substrate protein remaining %≤ 100%) | A (0% ≤ substrate protein remaining % ≤ 80%) | A (0% ≤ substrate protein remaining % ≤ 80%) | 50 to 100 nM | 100 to 500 nM | – |
